Active and inactive are the calls of the source. The rule behind the calls is not given here.
Legend:
[1] = target: 4-amino-4-deoxychorismate synthase (Escherichia coli); test: Inhibition of ADCS
[2] = test system: 4-amino-4-deoxychorismate synthase ADCS/PabB (Escherichia coli); test: Inhibition of ADCS

SMILES	Ki [1] [µM]	Activity [2]
NC(=O)C1(NC(=O)[C@H](CCCCNC(=O)c2cccc(OCC(=O)O)c2)NC(=O)c2ncccc2C(=O)c2ccccc2)CCCCC1	3900	–
O=C(O)CCNc1ccc(C(=O)O)cc1	13000	–
O=C(O)CNc1cc(C(=O)O)ccc1F	3000	–
NC(=O)c1cccc(OCC(=O)O)c1	32000	–
CC(=O)N[C@@H](CCCCNC(=O)c1cccc(OCC(=O)O)c1)C(N)=O	31000	–
O=C(O)CCC1=CC(CCC(=O)O)CCC1=O (centres undefined)	–	inactive
O=C(O)COc1cccc(C(=O)O)c1	37000	–
O=C(O)COc1ccc(C(=O)O)cc1	100000	–
CC(=O)N[C@@H](CCCCNCc1cccc(OCC(=O)O)c1)C(N)=O	38000	–
O=C(O)c1ccc(=O)oc1	2000	–

Further compounds by falling Ki [1], results first:

Ki [1] [µM]	Activity [2]	SMILES
1700	–	Cc1ccc(C(=O)N[C@@H](CCCCNC(=O)c2cccc(OCC(=O)O)c2)C(=O)NCC(C(N)=O)C2CCCCC2)c([N+](=O)[O-])c1O (some centres undefined)
1500	–	Cc1ccc(C(=O)N[C@@H](CCCCNC(=O)c2cccc(OCC(=O)O)c2)C(=O)N[C@@H](Cc2cccc(Cl)c2)C(=O)NCCOCCOCCNC(=O)CCC(=O)N2CCN(CC(N)=O)CC2)c([N+](=O)[O-])c1O
1400	–	CC(C(=O)N[C@@H](CCCCNC(=O)c1cccc(OCC(=O)O)c1)C(=O)NCCc1cccc2c1oc1c(CCC(=O)NCCOCCOCCNC(=O)CCC(=O)N3CCN(CC(N)=O)CC3)cccc12)c1ccc([N+](=O)[O-])cc1 (some centres undefined)
1100	–	NC(=O)C1(NC(=O)[C@H](CCCCNC(=O)c2cccc(OCC(=O)O)c2)NC(=O)c2cc(O)cc(O)c2)CCCCC1
770	–	Cc1ccc(C(=O)N[C@@H](CCCCNC(=O)c2cccc(OCC(=O)O)c2)C(=O)N[C@@H](Cc2cccc(Cl)c2)C(N)=O)c([N+](=O)[O-])c1O
720	–	COc1cccc(OC)c1C(=O)N[C@@H](CCCCNC(=O)c1cccc(OCC(=O)O)c1)C(=O)N[C@@H](Cc1ccc([N+](=O)[O-])c(O)c1)C(N)=O
710	–	NC(=O)C1(NC(=O)[C@H](CCCCNC(=O)c2cccc(OCC(=O)O)c2)NC(=O)c2ccc(Oc3ccccc3)cc2)CCS(=O)(=O)CC1
540	–	Cc1ccc(C(=O)N[C@@H](CCCCNC(=O)c2cccc(OCC(=O)O)c2)C(=O)N[C@@H](Cc2ccc(C#N)cc2)C(N)=O)c([N+](=O)[O-])c1O
360	–	CC(C(=O)N[C@@H](CCCCNC(=O)c1cccc(OCC(=O)O)c1)C(=O)NCCc1cccc2c1oc1c(CCC(N)=O)cccc12)c1ccc([N+](=O)[O-])cc1 (some centres undefined)

From ChEMBL document CHEMBL1138215, “Aminodeoxychorismate synthase inhibitors from one-bead one-compound combinatorial libraries: "staged" inhibitor design” (J Med Chem, 2006)
